Measurements reported in patent US5166379A, “Synthesis of compounds with biological activity, and methods of use” (Harbor Branch Oceanographic Institution, Inc., priority 1990, dated 1992).
In brackets after ≈: the same amount, converted by molar mass. Read-outs that look alike come from different tables or passages of the source.

Columns and labels:
[1] = system: murine splenocyte suspensions (BALB/c and C57BL/6J mice); test: Mixed Lymphocyte Reaction (MLR); assay type: cell-based; settings: for activity at 0.05 µg/mL / activity at 0.2 µg/mL / activity at 0.8 µg/mL / activity at 3.1 µg/mL / activity at 12.5 µg/mL / activity at 50 µg/mL: Mus musculus, Splenocyte, read-out: % MLR (percentage of positive control)
Procedure: I. Mixed Lymphocyte Reaction
1. Murine splenocyte suspensions were prepared separately from BALB/c and C57BL/6J mice. […] The cell concentrations were adjusted to 2.5×10^6 cells/ml. Aliquots of each cell population were removed to separate tubes, and the remaining two cell suspensions combined to one tube.
(§1) 2. Serial, log10 dilutions of the pure compound were made in absolute ethanol, and 10 μl of each dilution was added to wells of microtiter test plates, and allowed to dry.
3. A volume of 0.2 ml of the combined splenocyte suspensions was added to triplicate test wells. Positive control wells received combined splenocyte suspensions in the absence of the test compounds. Negative control wells consisted of separate (not mixed) splenocyte suspensions cultured in the absence of the test compounds.
4. Plates were incubated in 5% CO2 at 37° C. for 86 hours.
5. A volume of 0.05 ml of ^3 H-thymidine (20 μCi/ml) was added to each well, and the plates were incubated in 5% CO2 at 37° C. for an additional 5 hours.
6. The contents of each well of the microtiter plates were harvested onto glass fiber filter strips, and the resulting filter discs placed in scintillation vials to which 2.0 ml of scintillation fluid was added.
7. The amount of incorporated ^3 H-thymidine was determined by counting the vials in a liquid scintillation counter.
8. Triplicate counts were averaged, and the data reported as a percentage of the positive control.

[2] = Lymphocyte Viability Assay (LCV); assay type: cell-based, murine; settings: mouse, splenocytes, read-out: % LCV (percentage of positive control)
Procedure: (§2) II. Lymphocyte Viability Assay
(§3) 1. Compounds were similarly tested in parallel with the MLR to determine their toxic effects on lymphoid cells using the lymphocyte viability assay (LCV).
as §1
(§4) 3. Murine splenocyte suspensions were prepared from BALB/c mice. […] The cell concentrations were adjusted to 2.5×10^6 cells/ml.
(§5) 4. A volume of 0.2 ml of the splenocyte suspension was added to replicate test wells. Positive control wells received splenocyte suspensions in the absence of the test compounds.
(§6) 5. Plates were incubated at 37° C. for 86 hours. At the end of the incubation period, a volume of 75 μl of a 2.0 mg/ml solution of MTT was added to each well, and the plates were returned to the incubator for an additional 5 hours.
(§7) 6. The supernatants from each microwell were then removed, and a volume of 200 μl of isopropanol was added and the contents mixed.
(§8) 7. Values were obtained by comparing the optical densities (determined at 570 and 650 nm) of wells containing the test compounds with those of wells containing cells and medium only (positive control). The results are expressed as a percentage of the positive control.
(§9) 8. Replicate counts were averaged, and the data reported as a percentage of the positive control. An LCV value of less than 60% of the positive control is an indication of cytotoxicity of the test compounds for lymphoid cells.

P388 cells = test: Antiproliferative effects against P388 cells (antitumor, MTT); assay type: cell-based; settings: for IC50: Mus musculus, P388, 48 hour exposure; for P388 IC50: 48 hour exposure
Procedure: IV. Antitumor Methodology
To assess the antiproliferative effects against P388 cells, 200 μl cultures (96-well tissue culture plates, Nunc, Denmark) were established at 1×10^5 cells/ml in drug-free medium or medium containing the pure compounds/crude extracts at a final dilution or 1:500 and at various concentrations. Solvent for all dilutions was methanol, which was removed from plates under vacuum. All experimental cultures were initiated in media containing Gentamicin sulfate (50 μg/ml; Schering Corporation, Kenilworth, NJ).
To quantitate the effects of pure compounds/crude extracts on cell proliferation, 75 μl of warm growth medium containing 5 mg/ml MTT was added to each well, cultures were returned to the incubator, and were left undisturbed for 90 minutes. To spectrophotometrically quantitate formation of reduced formazan, plates were centrifuged (900×g, 5 minutes), culture fluids removed by aspiration, and 200 μl of acidified isopropanol (2 ml concentrated HCl/liter isopropanol) added per well. The absorbance of the resulting solutions were measured at 570 nm with a plate reader (MR700 Microplate Reader, Dynatech Laboratories, Chantilly, VA).

[3] = system: lymphoid cells (murine BALB/c splenocytes); test: Lymphocyte Viability Assay (LCV); assay type: cell-based
Procedure: as §2, §3, §1, §4, §5, §6, §7, §8, §9

Row | SMILES | IC50 (P388 cells) [µg/mL] | activity at 0.05 µg/mL ([1]; 0.05 μg/ml) [%] | activity at 0.2 µg/mL ([1]; 0.2 μg/ml) [%] | activity at 0.8 µg/mL ([1]; 0.8 μg/ml) [%] | activity at 3.1 µg/mL ([1]; 3.1 μg/ml) [%] | activity at 12.5 µg/mL ([1]; 12.5 μg/ml) [%] | activity at 50 µg/mL ([1]; 50 μg/ml) [%] | viability ([2]; 0.05 μg/ml) [%] | viability ([2]; 0.2 μg/ml) [%] | viability ([2]; 0.8 μg/ml) [%] | viability ([2]; 3.1 μg/ml) [%] | viability ([2]; 12.5 μg/ml) [%] | viability ([2]; 50 μg/ml) [%] | % MLR (percentage of positive control) ([1]; 0.05 μg/ml) [%] | % MLR (percentage of positive control) ([1]; 0.2 μg/ml) [%] | % MLR (percentage of positive control) ([1]; 0.8 μg/ml) [%] | % MLR (percentage of positive control) ([1]; 3.1 μg/ml) [%] | % MLR (percentage of positive control) ([1]; 12.5 μg/ml) [%] | % MLR (percentage of positive control) ([1]; 50 μg/ml) [%] | % LCV (percentage of positive control) ([3]; 0.05 μg/ml) [%] | further results
1 | C#CC(O)C=CCCCCC (stereo not shown) [CH3 (CH2)4 CH= CH--CHOH--C≡CH] |  |  |  |  |  |  |  |  |  |  |  |  |  | 112 | 14 | 82 | 0 | 0 | 0 | 109 | % LCV (percentage of positive control) ([3]; 0.2 μg/ml): 121%; % LCV (percentage of positive control) ([3]; 0.8 μg/ml): 119%; % LCV (percentage of positive control) ([3]; 3.1 μg/ml): 89%; % LCV (percentage of positive control) ([3]; 12.5 μg/ml): 65%; % LCV (percentage of positive control) ([3]; 50 μg/ml): 7%; P388 IC50 (P388 cells): 74.0 µg/mL
2 | CC#CC(O)/C=C/CCCCCCCCCCCCCCC (stereo not shown) [CH3 (CH2)14 CH=CH--CHOH--C≡C--CH3] | 200 (≈ 652 µM) | 137 | 143 | 83 | 0 | 0 | 0 | 154 | 107 | 75 | 86 | 67 | 60 |  |  |  |  |  |  |  | 
3 | CCCCCCCCCCCCCCC/C=C/C(O)C#N (stereo not shown) [CH3 (CH2)14 CH=CH--CHOH--C≡N] | 28 (≈ 95.4 µM) | 60 | 89 | 85 | 80 | 0 | 0 | 132 | 135 | 161 | 144 | 77 | 37 |  |  |  |  |  |  |  | 
4 | CCCCCCCCCCCCCCCCO [CH3 (CH2)14 CH2 OH] | 9.3 (≈ 38.4 µM) | 136 | 128 | 127 | 137 | 0 | 0 | 70 | 86 | 37 | 98 | 0 | 0 |  |  |  |  |  |  |  | 
5 | C#CC(O)C=CCCCCCCCCCCCCCCCCCCC (stereo not shown) [CH3 (CH2)18 CH=CH--CHOH--C≡CH] |  |  |  |  |  |  |  |  |  |  |  |  |  | 103 | 103 | 0 | 0 | 0 | 0 | 58 | % LCV (percentage of positive control) ([3]; 0.2 μg/ml): 70%; % LCV (percentage of positive control) ([3]; 0.8 μg/ml): 61%; % LCV (percentage of positive control) ([3]; 3.1 μg/ml): 28%; % LCV (percentage of positive control) ([3]; 12.5 μg/ml): 30%; % LCV (percentage of positive control) ([3]; 50 μg/ml): 39%; P388 IC50 (P388 cells): 219 µg/mL
6 | CCCCCCCCCCCCCCC/C=C/C=O [CH3 (CH2)14 CH=CH--CHO] | 15.1 (≈ 56.7 µM) | 150 | 105 | 135 | 146 | 0 | 0 | 130 | 175 | 181 | 186 | 89 | 5 |  |  |  |  |  |  |  | 
7 | C#CC(O)C=CCCCCCCCCC (stereo not shown) [CH3 (CH2)8 CH=CH--CHOH--C≡CH] |  |  |  |  |  |  |  |  |  |  |  |  |  | 120 | 0 | 0 | 0 | 0 | 0 | 35 | % LCV (percentage of positive control) ([3]; 0.2 μg/ml): 44%; % LCV (percentage of positive control) ([3]; 0.8 μg/ml): 30%; % LCV (percentage of positive control) ([3]; 3.1 μg/ml): 26%; % LCV (percentage of positive control) ([3]; 12.5 μg/ml): 5%; % LCV (percentage of positive control) ([3]; 50 μg/ml): 0%; P388 IC50 (P388 cells): 27.0 µg/mL

Further lines, with some results ahead:

Row | IC50 (P388 cells) [µg/mL] | SMILES | activity at 0.05 µg/mL ([1]; 0.05 μg/ml) [%] | activity at 0.2 µg/mL ([1]; 0.2 μg/ml) [%] | activity at 0.8 µg/mL ([1]; 0.8 μg/ml) [%] | activity at 3.1 µg/mL ([1]; 3.1 μg/ml) [%] | activity at 12.5 µg/mL ([1]; 12.5 μg/ml) [%] | activity at 50 µg/mL ([1]; 50 μg/ml) [%] | viability ([2]; 0.05 μg/ml) [%] | viability ([2]; 0.2 μg/ml) [%] | viability ([2]; 0.8 μg/ml) [%] | viability ([2]; 3.1 μg/ml) [%] | viability ([2]; 12.5 μg/ml) [%] | viability ([2]; 50 μg/ml) [%] | % MLR (percentage of positive control) ([1]; 0.05 μg/ml) [%] | % MLR (percentage of positive control) ([1]; 0.2 μg/ml) [%] | % MLR (percentage of positive control) ([1]; 0.8 μg/ml) [%] | % MLR (percentage of positive control) ([1]; 3.1 μg/ml) [%] | % MLR (percentage of positive control) ([1]; 12.5 μg/ml) [%] | % MLR (percentage of positive control) ([1]; 50 μg/ml) [%] | % LCV (percentage of positive control) ([3]; 0.05 μg/ml) [%] | further results
8 | 44 (≈ 183 µM) | CCCCCCCCCCCCCCCC=O [CH3 (CH2)14 CHO] | 59 | 94 | 80 | 73 | 36 | 0 | 237 | 182 | 161 | 202 | 153 | 132 |  |  |  |  |  |  |  | 
9 | 67 (≈ 219 µM) | C#CC(C)(O)/C=C/CCCCCCCCCCCCCCC (stereo not shown) [CH3 (CH2)14 CH=CH--COH(CH3)--C≡CH] | 152 | 161 | 171 | 115 | 65 | 0 | 53 | 107 | 118 | 109 | 54 | 5 |  |  |  |  |  |  |  | 
10 | 48 (≈ 163 µM) | C#CC(O)CCCCCCCCCCCCCCCCC (stereo not shown) [CH3 (CH2)16 CHOH--C≡CH] | 0 | 0 | 0 | 0 | 0 | 0 | 61 | 68 | 39 | 56 | 7 | 2 |  |  |  |  |  |  |  | 
